Results as given in the supplement of paper PMC10307832.

Key:
Experiment in all cases: relative viability (nuclei count vs DMSO), 5 days (fraction); higher = more cells survive
NCI-H1648 = tested on: NCI-H1648
How it was run: (§1)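 Nuclei were stained with Hoechst during a one-step fixation (final 0.05% Triton X-100, 1% formaldehyde, 1 ug/ml Hoechst) carried out 5 days after dosing, then counted on 4× images. The cells, lung cancer lines in 1536-well plates, had been dosed by pin tool the day after seeding with one drug alone or a fixed anchor-drug dose plus five library-drug doses (not always all listed) in √10 steps. Relative viability is the nuclei count in treated wells divided by that in vehicle wells, and each value is the median of duplicate plates.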

LK-2 = tested on: LK-2
How it was run: as §1

NCI-H1734 = tested on: NCI-H1734
How it was run: as §1

A-427 = tested on: A-427
How it was run: as §1

A549 = tested on: A549
How it was run: as §1

NCI-H2009 = tested on: NCI-H2009
How it was run: as §1

NCI-H1650 = tested on: NCI-H1650
How it was run: as §1

UMC-11 = tested on: UMC-11
How it was run: as §1

Work on `Nc1ccn([C@@H]2O[C@H](CO)[C@@H](O)[C@@H]2O)c(=O)n1` [Cytarabine] + Nc1ncn([C@H]2C[C@H](O)[C@@H](CO)O2)c(=O)n1 [Decitabine] (partner 2 µM) yielded a relative viability (NCI-H1648; first compound 0.005 µM) of 0.479, a relative viability (NCI-H1648; first compound 0.01581 µM) of 0.526 and a relative viability (NCI-H1648; first compound 0.05 µM) of 0.502. The relative viability (NCI-H1648; first compound 0.1581 µM) was 0.35, the relative viability (NCI-H1648; first compound 0.5 µM) was 0.362 and the relative viability (LK-2; first compound 0.005 µM) was 0.234. For the same compound, the relative viability (LK-2; first compound 0.01581 µM) was 0.249, the relative viability (LK-2; first compound 0.05 µM) was 0.15 and the relative viability (LK-2; first compound 0.1581 µM) was 0.0989. For the same compound, the relative viability (LK-2; first compound 0.5 µM) was 0.132, the relative viability (NCI-H1734; first compound 0.005 µM) was 0.439 and the relative viability (NCI-H1734; first compound 0.01581 µM) was 0.27. For the same compound, the relative viability (NCI-H1734; first compound 0.05 µM) was 0.188, the relative viability (NCI-H1734; first compound 0.1581 µM) was 0.131 and the relative viability (NCI-H1734; first compound 0.5 µM) was 0.138. It also gave a relative viability (A-427; first compound 0.005 µM) of 0.475, a relative viability (A-427; first compound 0.01581 µM) of 0.421 and a relative viability (A-427; first compound 0.05 µM) of 0.361. The relative viability (A-427; first compound 0.1581 µM) was 0.259, the relative viability (A-427; first compound 0.5 µM) was 0.263 and the relative viability (A549; first compound 0.005 µM) was 0.215. It also gave a relative viability (A549; first compound 0.01581 µM) of 0.115, a relative viability (A549; first compound 0.05 µM) of 0.161 and a relative viability (A549; first compound 0.1581 µM) of 0.0447. It also gave a relative viability (A549; first compound 0.5 µM) of 0.0287, a relative viability (NCI-H2009; first compound 0.005 µM) of 0.325 and a relative viability (NCI-H2009; first compound 0.01581 µM) of 0.363. For the same compound, the relative viability (NCI-H2009; first compound 0.05 µM) was 0.342, the relative viability (NCI-H2009; first compound 0.1581 µM) was 0.243 and the relative viability (NCI-H2009; first compound 0.5 µM) was 0.189. For the same compound, the relative viability (NCI-H1650; first compound 0.005 µM) was 0.294, the relative viability (NCI-H1650; first compound 0.01581 µM) was 0.286 and the relative viability (NCI-H1650; first compound 0.05 µM) was 0.276. It also gave a relative viability (NCI-H1650; first compound 0.1581 µM) of 0.17, a relative viability (NCI-H1650; first compound 0.5 µM) of 0.172 and a relative viability (UMC-11; first compound 0.005 µM) of 0.547. The relative viability (UMC-11; first compound 0.01581 µM) was 0.521, the relative viability (UMC-11; first compound 0.05 µM) was 0.328 and the relative viability (UMC-11; first compound 0.1581 µM) was 0.32. For the same compound, the relative viability (UMC-11; first compound 0.5 µM) was 0.306.
In the case of `COc1cc2nccc(Oc3ccc(NC(=O)Nc4cc(C)on4)c(Cl)c3)c2cc1OC` [Tivozanib] + Nc1ncn([C@H]2C[C@H](O)[C@@H](CO)O2)c(=O)n1 [Decitabine] (partner 2 µM), the relative viability (NCI-H1648; first compound 0.005 µM) is reported as 0.467, the relative viability (NCI-H1648; first compound 0.01581 µM) is reported as 0.434 and the relative viability (NCI-H1648; first compound 0.05 µM) is reported as 0.479. For the same compound, the relative viability (NCI-H1648; first compound 0.1581 µM) was 0.451, the relative viability (NCI-H1648; first compound 0.5 µM) was 0.496 and the relative viability (LK-2; first compound 0.005 µM) was 0.275. It also gave a relative viability (LK-2; first compound 0.01581 µM) of 0.322, a relative viability (LK-2; first compound 0.05 µM) of 0.334 and a relative viability (LK-2; first compound 0.1581 µM) of 0.204. It also gave a relative viability (LK-2; first compound 0.5 µM) of 0.206, a relative viability (NCI-H1734; first compound 0.005 µM) of 0.493 and a relative viability (NCI-H1734; first compound 0.01581 µM) of 0.428. The relative viability (NCI-H1734; first compound 0.05 µM) was 0.513, the relative viability (NCI-H1734; first compound 0.1581 µM) was 0.431 and the relative viability (NCI-H1734; first compound 0.5 µM) was 0.5. It also gave a relative viability (A-427; first compound 0.005 µM) of 0.566, a relative viability (A-427; first compound 0.01581 µM) of 0.551 and a relative viability (A-427; first compound 0.05 µM) of 0.575. For the same compound, the relative viability (A-427; first compound 0.1581 µM) was 0.566, the relative viability (A-427; first compound 0.5 µM) was 0.543 and the relative viability (A549; first compound 0.005 µM) was 0.207. The relative viability (A549; first compound 0.01581 µM) was 0.225, the relative viability (A549; first compound 0.05 µM) was 0.223 and the relative viability (A549; first compound 0.1581 µM) was 0.239. For the same compound, the relative viability (A549; first compound 0.5 µM) was 0.225, the relative viability (NCI-H2009; first compound 0.005 µM) was 0.388 and the relative viability (NCI-H2009; first compound 0.01581 µM) was 0.329. It also gave a relative viability (NCI-H2009; first compound 0.05 µM) of 0.382, a relative viability (NCI-H2009; first compound 0.1581 µM) of 0.369 and a relative viability (NCI-H2009; first compound 0.5 µM) of 0.368. For the same compound, the relative viability (NCI-H1650; first compound 0.005 µM) was 0.412, the relative viability (NCI-H1650; first compound 0.01581 µM) was 0.493 and the relative viability (NCI-H1650; first compound 0.05 µM) was 0.507. For the same compound, the relative viability (NCI-H1650; first compound 0.1581 µM) was 0.508, the relative viability (NCI-H1650; first compound 0.5 µM) was 0.411 and the relative viability (UMC-11; first compound 0.005 µM) was 0.59. For the same compound, the relative viability (UMC-11; first compound 0.01581 µM) was 0.595, the relative viability (UMC-11; first compound 0.05 µM) was 0.657 and the relative viability (UMC-11; first compound 0.1581 µM) was 0.478. The relative viability (UMC-11; first compound 0.5 µM) was 0.425.
